# From patent publication US20230331652A1, “TRANS-CYCLOOCTENES WITH HIGH REACTIVITY AND FAVORABLE PHYSIOCHEMICAL PROPERTIES” (University of Delaware, priority 2020, published 2023)
# What was measured:
# [1] = toward 20; no kinetic example for 4b in the patent, FIG. 4A footnotes cite earlier measurements in 100% H2O; cited from earlier work
# [2] = tested on: cellular protein sulfenic acids; conditions: generally; not under the conditions of intracellular bioorthogonal chemistry (generally ≤10 μM); cited from earlier work
# [3] = Stability with mercaptoethanol (25 mM) in phosphate buffered D2O, pD=7.4; assay type: physicochemical; conditions: 25 mM mercaptoethanol
# Experimental: (§1) Phosphate buffered D2O (pD=7.4) was prepared by combining anhydrous sodium dihydrogen phosphate (NaH2PO4, 77.1 mg) and anhydrous disodium hydrogen phosphate (Na2HPO4, 204.4 mg) with 20 mL of D2O to make a 0.1 M solution. The pD was measured on a Fisher Scientific AB15 Plus pH meter and pH values were converted to pD by adding 0.4 units. The pD was adjusted to 7.4 with DCI (35 wt. % in D2O) and NaOD (40 wt. % in D2O) as necessary.
# TCO 14 (3.1 mg, 18 μmol) in a solution of mercaptoethanol in phosphate buffered D2O (720 μL, 18 μmol, 25 mM, pD=7.4) was monitored by quantitative 1H NMR on a 600 MHz instrument to observe the decomposition of the trans-isomer over time. Methyl tert-butyl ether (2.1 μL, 18 μmol) was used as an internal standard. After 4 hours, 93% of 14 remained and 49% of 14 remained after 20 hours. (FIG. 6C). The results were plotted using Prism software (Version 8.00, GraphPad Software Inc). A waterfall plot of the ^1H NMR spectra is provided.
# TCO 4a (2.3 mg, 18 μmol) in a solution of mercaptoethanol in phosphate buffered D2O (720 μL, 18 μmol, 25 mM, pD=7.4) was monitored by quantitative 1H NMR on a 600 MHz instrument to observe the decomposition of the trans-isomer over time. Methyl tert-butyl ether (2.1 μL, 18 μmol) was used as an internal standard. After 4 hours, 89% of 4a and 49% of 4a remained after 20 hours. (FIG. 6C). The results were plotted using Prism software (Version 8.00, GraphPad Software Inc). A waterfall plot of the ^1H NMR spectra is provided.
# [4] = Stability in phosphate buffered D2O, pD=7.4 (33 mM) by quantitative 1H NMR; assay type: physicochemical
# Experimental: as §1
# (§2) A solution of 14 (4.3 mg, 25 μmol) in phosphate buffered D2O (750 μL, pD=7.4) was monitored by quantitative ^1H NMR on a 600 MHz instrument to observe the decomposition of the trans-isomer over time. Methyl tert-butyl ether (3.0 μL, 26 μmol) was used as an internal standard. After 1 day, 90% of 14 remained and after 5 days, 39% remained (FIG. 6B). The results were plotted using Prism software (Version 8.00, GraphPad Software Inc). A waterfall plot of the ^1H NMR spectra is provided.
# as §2, with “4a (3.2” for “14 (4.3”, “85%” for “90%”, “4a” for “14”, “35%” for “39%”
# [5] = 4a with a PEGylated amide of 20 in 100% H2O, previously measured (Darko et al.); cited from earlier work
# [6] = Stopped-flow kinetics of the Diels-Alder reaction with tetrazine 20; assay type: physicochemical; conditions: toward tetrazine 20, stopped flow, 25° C., 95:5 PBS:MeOH
# Experimental: The kinetics for the reaction of a-TCO derivative 14 toward a 3,6-dipyridyl-s-tetrazinyl succinamic acid derivative 20 were measured by stopped flow kinetics at 25° C. in 95:5 PBS:MeOH (FIG. 4A).
# Stopped-flow kinetics measurements were performed on a SX18MV-R stopped-flow spectrophotometer (Applied Photophysics Ltd.) with temperature control (25° C.).
# The reaction between 5-ax-hydroxy-5-eq-(2-hydroxyethyl)-trans-cyclooctene 14 and 3,6-dipyridyl-s-tetrazine-mono-succinamic acid 20 was monitored by a SX18MV-R stopped-flow spectrophotometer (Applied Photophysics Ltd.) at 325 nm by measuring the exponential decay of tetrazine under pseudo-first order conditions. Solutions of 14 (0.98, 1.46, 1.95, and 2.63 mM in 9:1 PBS/MeOH) and tetrazine (0.1 mM in PBS) were mixed in the stopped-flow spectrophotometer in equal volumes resulting in final concentrations of 0.49 mM, 0.73 mM, 0.97 mM, and 1.31 mM of 14 and 0.05 mM of tetrazine in 95:5 PBS/MeOH. Three independent samples were prepared for each TCO concentration and measurements were taken in duplicate every 0.1 ms for 0.1 sat 25° C. The observed rates kobs for each run were determined by nonlinear regression analysis of the data points using Prism software (Version 8.00, GraphPad Software Inc). The average kobs values were plotted against the concentrations of 14 to obtain the bimolecular rate constant k2 from the slope of the plot.
# The observed rates (kobs) of 5-ax-hydroxy-5-eq-(2-hydroxyethyl)-trans-cyclooctene 14 (10-30 equivalents) and 3,6-dipyridyl-s-tetrazine-mono-succinamic acid 20 were measured using stopped-flow kinetics. The final concentrations of 14 after injection were (A) 0.49 mM, (B) 0.73 mM, (C) 0.97 mM, and (D) 1.31 mM and the concentration of tetrazine was 0.05 mM in 95:5 PBS/MeOH at 25° C. Duplicate measurements were obtained for three independent samples for each concentration of 14.
# The reaction between 5-ax-hydroxy-trans-cyclooctene 4a and 3,6-dipyridyl-s-tetrazine-mono-succinamic acid 20 was monitored by a SX18MV-R stopped-flow spectrophotometer (Applied Photophysics Ltd.) at 325 nm by measuring the exponential decay of tetrazine under pseudo-first order conditions. Solutions of 4a (100, 200, 300, and 400 μM in 9:1 PBS/MeOH) and tetrazine (20 μM in PBS) were mixed in the stopped-flow […] 95:5 PBS/MeOH. Three independent samples were prepared for each TCO concentration and measurements were taken in duplicate every 0.1 ms for 0.2 s at 25° C. The observed rates kobs for each run were determined by nonlinear regression analysis of the data points using Prism software (Version 8.00, GraphPad Software Inc). The average kobs values were plotted against the concentrations of 4a to obtain the bimolecular rate constant k2 from the slope of the plot.
# The observed rates (kobs) of 5-ax-hydroxy-trans-cyclooctene 4a (5-20 equivalents) and 3,6-dipyridyl-s-tetrazine-mono-succinamic acid 20 were measured using stopped-flow kinetics. […]
# [7] = as above; assay type: physicochemical; conditions: 4a, 10 μM tetrazine, 95:5 PBS/MeOH, 25° C., in s-1 (unit assumed)
# [8] = Stability in methanol-d4 (35 mM) by quantitative 1H NMR; assay type: physicochemical; conditions: 35 mM in methanol-d4, after 7 days
# Experimental: as §2, with “(4.5” for “(4.3”, “26” for “25”, “methanol-d4” for “phosphate buffered D2O”, “μL)” for “μL, pD=7.4)”, “(3.1” for “(3.0”, “After 1 day, 90% of 14 remained and after 5 days, 39% remained (FIG. 6B).” left out
# as §2, with “4a (3.3” for “14 (4.3”, “26” for “25”, “methanol-d4” for “phosphate buffered D2O”, “μL)” for “μL, pD=7.4)”, “(3.1” for “(3.0”, “After 1 day, 90% of 14 remained and after 5 days, 39% remained (FIG. 6B).” left out
compound,measurement,setting,value
"OC1CC/C=C/CCC1 (stereo not drawn) [Compound 4b, equatorial-5-hydroxy-trans-cyclooctene]","second-order rate constant k2 (equatorial isomer, comparison value)",[1],"22,400±40 M^−1s^−1"
"C#CCC1(O)CC/C=C/CCC1 (stereo not drawn) [Compound 5, 5-ax-Hydroxy-5-eq-propargyl-trans-cyclooctene]",TCO concentration at which sulfenic acids are modified,[2],≥ 500 µM
"OC1CC/C=C/CCC1 (stereo not drawn) [Compound 4a, 5-ax-Hydroxy-trans-cyclooctene]",TCO remaining,"[3]; phosphate buffered D2O pD 7.4, 4 hours",89%
same,TCO remaining,"[3]; phosphate buffered D2O pD 7.4, 20 hours",49%
same,TCO remaining,"[4]; phosphate buffered D2O pD 7.4, 1 day (24 h), room temperature",85%
same,TCO remaining,"[4]; phosphate buffered D2O pD 7.4, 5 days",35%
same,k2,[5],"80,200"
same,second-order rate constant k2,[6],"70,000±1800 M^−1s^−1"
same,Kobs,[7]; Table 2 head A (0.49 mM),3.407
same,Kobs,[7]; Table 2 head B (0.73 mM),6.966
same,Kobs,[7]; Table 2 head C (0.97 mM),10.09
same,Kobs,[7]; Table 2 head D (1.31 mM),13.86
same,decomposition of the trans-isomer,[8],no observable decomposition
